What was measured:
TEL-CSF1R-BaF3 = biological target: T1, TEL-CSF1R-BaF3 (Homo sapiens, UniProt P07333); experiment: Proliferation of TEL-CSF1R-BaF3 cells (CCK-8, 72 hours); type: cell-based; conditions: 72 hours incubation, CCK-8
T1 construct: expressed in transfected cells; host or cells: mouse BaF3 cells (ATCC), retroviral transduction with MSCV-Puro vector, IL-3 withdrawn; the other entry of the earlier key: ETV6 (P41212, Transcription factor ETV6)
T1 sequence (P07333 582-910 limits assumed): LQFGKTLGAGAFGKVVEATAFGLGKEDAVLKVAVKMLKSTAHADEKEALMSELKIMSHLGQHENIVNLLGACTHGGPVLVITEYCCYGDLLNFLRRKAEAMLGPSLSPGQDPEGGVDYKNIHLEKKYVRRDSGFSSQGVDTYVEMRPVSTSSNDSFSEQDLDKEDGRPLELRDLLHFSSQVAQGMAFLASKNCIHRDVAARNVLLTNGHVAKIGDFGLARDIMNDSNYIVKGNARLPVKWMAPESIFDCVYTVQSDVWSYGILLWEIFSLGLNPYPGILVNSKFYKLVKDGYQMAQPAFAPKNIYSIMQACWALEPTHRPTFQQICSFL
Description: (§1) The incubated cells were detected by CCK-8 (purchased from MedChem Express, China) cell viability detection kit (CCK-8 can be reduced by dehydrogenases in living cells to a highly water-soluble yellow formazan product, and the amount of the generated formazan product is proportional to the number of living cells). The number of living cells was quantified by a microplate reader, and the GI50 for each compound was calculated (the results are shown in Table 2).
The construction method of the TEL-CSF1R-BaF3 cell line (a cell line stably expressing CSF1R kinase) was as follows: the sequence of human CSF1R kinase region was amplified by PCR and inserted into the MSCV-Puro vector (Clontech) with an N-terminal TEL fragment, and stably transferred into mouse BaF3 cells (purchased from ATCC, USA) by a retroviral method, and IL-3 growth factor was removed, finally a cell line dependent on CSF1R transferred protein was obtained.

M-NSF-60 = experiment: Proliferation of M-NSF-60 cells with M-CSF (CCK-8, 72 hours); type: cell-based, mouse; conditions: Mus musculus; M-CSF 50 ng/ml in medium, 72 hours incubation, CCK-8; read-out: M-NSF-60 (GI50/μM)
Description: as §1

RAW264.7 cells = experiment: Cell transformation experiment: IL-10 secretion of M2-induced RAW264.7 cells (ELISA); type: cell-based, mouse
Description: RAW264.7 cells (purchased from ATCC, USA) were sucked up and down with a pipette, and the cells were added to a centrifuge tube, placed in a centrifuge, and centrifuged at 800 rpm for 4 minutes.

MC38 cells = experiment: In vivo efficacy in MC38 cell tumor transplantation mouse model
Description: (§2) In this example, the experimental effects of Compound 2 and the control compound PLX3397 (purchased from MedChem Express, China) in MC38 and 4T1 mouse models were tested respectively.
(§3) The experimental procedure was as follows: • (1) C57BL/6J male mice for use as MC38 transplanted tumor model and Balb/c male mice for use as 4T1 transplanted tumor model, which were 6 weeks old, were purchased from GemPharmatech Co., Ltd, Jiangsu. All the above mice were raised in an SPF laboratory, and the drinking water and padding had been sterilized by high pressure sterilization. All operations related to mice were performed under sterile conditions. • (2) On day 0, approximately 1×10^6 MC38 cells (purchased from ATCC) were injected subcutaneously into the left back of each of the C57BL/6J mice, and approximately 1×10^6 4T1 cells (purchased from ATCC) were injected subcutaneously into the left back of each of the Balb/c mice. • (3) For the MC38 mouse model, starting from the 6th day, the corresponding mice were orally administered with methylcellulose (HKI) (purchased from China National Pharmaceutical Group Corporation) solvent once a day (5 mice); Compound 2 at a dose of 50 mg/kg mouse weight once a day (5 mice); PLX3397 at a dose of 50 mg/kg mouse weight once a day (5 mice). For the 4T1 mouse model, starting from the 6th day, the corresponding mice were orally administered with 10% HS-15 (purchased from BASF, Germany) solvent (5 mice); Compound 2 at a dose of 50 mg/kg mouse weight once a day (5 mice); PLX3397 at a dose of 50 mg/kg mouse weight once a day (5 mice). • (4) Starting from the 6th day, the length/width of the subcutaneous tumor was measured with a vernier caliper every day, and the weight of the mice was recorded every day to determine the effects of Compound 2 and control compound PLX3397 on the weight of mice in different model mice. The results are shown in FIGS. 3 and 6. • (5) The growth trends of subcutaneous tumors in mice of different models were statistically analyzed. The tumor volume was calculated using the following method: length×width×width/2 mm^3. The results are shown in FIGS. 4 and 7. • (6) Isolation of tumor-infiltrating lymphocytes: Tumor tissue was first minced (tissue block less than 1 mm^3) with a surgical blade, resuspended in 6 ml of digestion solution (collagenase IV and 0.005% DNaseI enzyme, both purchased from Sigma, USA), and the mixture was transferred to a 15-ml centrifuge tube. The centrifuge tube was then placed in a shaker at 37° C. and digested with shaking at 220 r/min for 2 hours. The cells were sieved through a 200-mesh sieve and collected in a 50-ml centrifuge tube, and centrifuged at 1500 rpm for 10 minutes. The supernatant was then discarded, and 10 ml of DMEM medium (10% FBS) (purchased from GIBCO, USA) was added to the tube to terminate the digestion. The tube was placed in a centrifuge, and centrifuged at 1500 rpm for another 10 minutes. The supernatant was discarded. At the same time, Percoll separation solution (purchased from Millipore, USA) was prepared, and 90% Percoll separation working solution was prepared using 10×PBS. To a 15 ml centrifuge tube, 3-4 ml of 70% Percoll separation solution was added. The cells were resuspended in 4 ml of 40% Percoll separation solution, and the cell mixture was added to the 70% Percoll separation solution. The centrifuge tube was placed in a centrifuge and subjected to density gradient centrifugation at 25° C., 1260 g, for 30 minutes (speed up 5, speed down 0). After the centrifugation, the centrifuge tube was placed on a centrifuge tube rack, the middle leukocyte layer was aspirated with a pipette, and added to 10 ml of PBS, they were mixed well and placed in a centrifuge, and centrifuged at 1500 rpm. The cell supernatant was discarded after 10 min and the cells were resuspended in 5 ml of PBS, centrifuged at 1500 rpm for another 10 min, and the washing process was repeated once. The cells obtained were leukocytes in the tumor tissue. […]

4T1 cells = experiment: In vivo efficacy in 4T1 cell tumor transplantation mouse model; conditions: 4T1 model
Description: as §2, §3

[1] = 50 mg/kg oral once a day, as days of administration increased

SMILES: COc1cc2nccc(Oc3ccc(NC(=O)Cc4ccc(Cl)c(C(F)(F)F)c4)cc3)c2cc1OC [Example 2, N-(4-((6,7-dimethoxyquinolin-4-yl)oxy)phenyl)-2-(4-chloro-3-(trifluoromethyl)phenyl)-acetamide]
- GI50 (TEL-CSF1R-BaF3): 0.003 µM
- GI50 (M-NSF-60): 0.03 µM
- effect on IL-10 secretion compared with positive controls (RAW264.7 cells; 1 μM, same dose as PLX3397 and BLZ945, FIG. 1): better for Compound 2 at 1 μM than positive controls PLX3397 and BLZ945
- level of IL-10 secretion in M2 macrophages (RAW264.7 cells; RAW264.7 induced with IL-4 or IL-13, treated 72 hours, serial dilutions, FIG. 1): decreased in a dose-dependent manner
- toxicity (mouse body weight) (MC38 cells; 50 mg/kg oral once a day, FIG. 3): no obvious toxicity
- inhibition effect of mouse tumors (MC38 cells; 50 mg/kg oral once a day, FIG. 4): good inhibition effect of mouse tumors
- inhibitory effect on mouse tumors compared with PLX3397 (MC38 cells; [1]): superior to the effect of the control compound PLX3397
- proportion of M1 macrophages around the tumor versus solvent group (MC38 cells; 50 mg/kg oral, flow cytometry, FIG. 5): much higher than that in the solvent group
- proportion of M1 macrophages in the tumor microenvironment versus PLX3397 group (MC38 cells; same dose 50 mg/kg, FIG. 5): higher than that of the PLX3397 group
- toxicity (mouse body weight) (4T1 cells; 50 mg/kg oral once a day, FIG. 6): no obvious toxicity
- inhibition effect of mouse tumors (4T1 cells; 50 mg/kg oral once a day, FIG. 7): good inhibition effect of mouse tumors
- inhibitory effect on mouse tumors compared with PLX3397 (4T1 cells; [1]): superior to the effect of the control compound PLX3397
- proportion of M1 macrophages around the tumor versus solvent group (4T1 cells; 50 mg/kg oral, flow cytometry, FIG. 8): much higher than that in the solvent group
- proportion of M1 macrophages in the tumor microenvironment versus PLX3397 group (4T1 cells; same dose 50 mg/kg, FIG. 8): higher than that of the PLX3397 group

Source: US20250186452A1, “NOVEL USE OF QUINOLINE COMPOUND” (TARAPEUTICS SCIENCE INC., priority 2022, published 2025)
